# Target: T1, zfT1R2a/zfT1R3 (Danio rerio, UniProt A0A8M1N8F9+Q2MHK9)
# T1 sequence (A0A8M1N8F9 26-825): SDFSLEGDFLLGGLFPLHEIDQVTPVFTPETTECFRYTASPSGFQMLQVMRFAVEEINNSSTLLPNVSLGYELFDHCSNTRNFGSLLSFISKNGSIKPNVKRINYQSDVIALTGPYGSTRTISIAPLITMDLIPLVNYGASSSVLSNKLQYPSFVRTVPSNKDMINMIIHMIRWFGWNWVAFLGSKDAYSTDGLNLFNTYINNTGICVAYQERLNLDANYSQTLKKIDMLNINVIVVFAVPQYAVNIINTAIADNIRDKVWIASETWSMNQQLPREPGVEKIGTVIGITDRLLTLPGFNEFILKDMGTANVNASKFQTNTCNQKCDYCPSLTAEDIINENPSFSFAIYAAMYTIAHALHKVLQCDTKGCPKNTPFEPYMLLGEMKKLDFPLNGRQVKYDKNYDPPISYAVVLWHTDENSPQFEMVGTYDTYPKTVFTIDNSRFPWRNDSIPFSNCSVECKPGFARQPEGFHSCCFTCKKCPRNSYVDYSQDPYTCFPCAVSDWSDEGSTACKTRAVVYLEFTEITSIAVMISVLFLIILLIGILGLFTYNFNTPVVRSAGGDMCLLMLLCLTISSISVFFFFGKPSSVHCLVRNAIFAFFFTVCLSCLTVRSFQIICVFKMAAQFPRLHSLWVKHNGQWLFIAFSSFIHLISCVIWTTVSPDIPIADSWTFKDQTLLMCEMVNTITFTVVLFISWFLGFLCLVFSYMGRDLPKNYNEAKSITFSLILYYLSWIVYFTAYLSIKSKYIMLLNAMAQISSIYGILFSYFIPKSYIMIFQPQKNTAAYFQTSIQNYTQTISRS
# T1 sequence (Q2MHK9 25-850): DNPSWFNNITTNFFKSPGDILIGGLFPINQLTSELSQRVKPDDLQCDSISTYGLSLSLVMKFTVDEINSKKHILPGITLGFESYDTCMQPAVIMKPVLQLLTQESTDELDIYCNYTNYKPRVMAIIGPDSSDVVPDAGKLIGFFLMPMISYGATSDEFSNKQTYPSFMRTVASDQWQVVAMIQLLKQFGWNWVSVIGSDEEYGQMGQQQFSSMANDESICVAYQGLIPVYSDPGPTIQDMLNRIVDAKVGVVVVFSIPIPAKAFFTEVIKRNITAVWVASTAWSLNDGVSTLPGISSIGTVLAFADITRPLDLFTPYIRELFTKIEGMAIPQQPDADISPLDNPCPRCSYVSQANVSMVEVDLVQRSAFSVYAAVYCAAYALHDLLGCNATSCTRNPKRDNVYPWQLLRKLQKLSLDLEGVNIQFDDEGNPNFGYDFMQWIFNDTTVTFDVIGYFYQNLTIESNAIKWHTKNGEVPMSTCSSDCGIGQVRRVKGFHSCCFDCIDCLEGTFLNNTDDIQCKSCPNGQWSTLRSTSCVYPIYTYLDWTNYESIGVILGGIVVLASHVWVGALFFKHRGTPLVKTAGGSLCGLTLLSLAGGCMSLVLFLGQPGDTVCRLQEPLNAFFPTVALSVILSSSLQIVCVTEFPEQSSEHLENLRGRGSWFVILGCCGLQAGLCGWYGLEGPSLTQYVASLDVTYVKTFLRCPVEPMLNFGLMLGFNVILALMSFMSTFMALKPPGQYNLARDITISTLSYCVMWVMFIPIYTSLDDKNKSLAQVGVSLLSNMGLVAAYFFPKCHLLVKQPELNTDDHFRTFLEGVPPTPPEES
# Test: Effect of anions, cations and osmotic pressure on cellular responses, cells in 10 mM Cl- buffer, zfT1R2a/zfT1R3
# Type: cell-based, zebrafish
# Settings: for response to fixed concentration of L-Pro on coapplication: coapplied with 160 µM L-Pro, final [Cl-]o up to 60 mM
# Procedure: Cells were seeded in 96-well plates coated with ε-poly-L-lysine at approximately 70,000 cells per well. […] Fluorescence changes were monitored at 2 s intervals, as described above. […] Three independent experiments were conducted for each receptor, and representative results are shown as the mean ± SEM (n = 3 replicates). Statistical tests were conducted using KyPlot version 6.0 (KyensLab Inc., Tokyo, Japan). Statistical significance was set at p < 0.05.
SMILES,response to fixed concentration of L-Pro on coapplication,cellular response to the salt alone (without agonist)
"O=C([O-])[C@H](O)[C@@H](O)[C@H](O)[C@H](O)CO.[Na+] [Na-gluconate, sodium gluconate]",did not enhance,
[Cl-].[Na+] [NaCl],enhanced,did not elicit
